The source of these data is patent US12415830B2, “Steroid compound, and use thereof and preparation method therefor” (Chengdu Kanghong Pharmaceutical Co Ltd, priority 2019, dated 2025).

SMILES strings stand for the structures. Like-named read-outs stand apart in the source and are kept apart here. Where only a bound is given, the exact number is not on record here.

One test has as its target T1, GABAA4 (α4β3δ) receptor (Homo sapiens, UniProt P28472+P48169).
T1 construct: expressed in transfected cells; host or cells: HEK293 (transient transfection, plasmids 1:1:1)
In words: Patch-clamp electrophysiology, compound alone or with 10 nM GABA (Table 3). The test is classed as cell-based. The settings on record: for Emax: relative to peak current in GABA only. On the procedure: (§1) The present invention applies the two subunits of the recombinant GABAA receptor: α1β2γ2 and α4β3δ to evaluate the potency of the exemplary compounds in vitro by patch-clamp electrophysiology.
(§2) Extracellular fluid: 140 mM NaCl, 5 mM CsCl, 2 mM CaCl2·2H2O, 1 mM MgCl2·6H2O, 5 mM HEPES, 10 mM D-Glucose, pH=7.4 (NaOH).
(§3) Intracellular fluid: 130 mM CsCl, 0.1 mM CaCl2·H2O, 2 mM MgCl2·6H2O, 1.1 mM EGTA, 5 mM Na2-ATP, 10 mM HEPES, pH=7.2 (CsOH).
HEK293 cell line was cultured in DMEM containing 10% fetal bovine serum and 5% carbon dioxide at 37° C.
Cell passage: The old medium was removed, and the cells were washed once with PBS. Then 1 mL 0.25%-Trypsin-EDTA solution was added to digest cells. The culture dish was incubated at 37° C. in pre-warmed incubator for 0.5 minutes. As soon as cells were detached, about 5 mL 37° C. pre-warmed complete medium was added. Cell aggregates were dissociated by gentle pipetting. The cell suspension was transferred into a sterile centrifuge tube and then the cell suspension was be spun at approximately 1000 rpm for 5 minutes. The cells were amplified or maintained by seeding 2.5×10^5 cells in a 6 cm dish (final medium volume: 5 mL). For transfection, 8×10^3 cells were plated onto coverslips, and cultured in a 24-well plate (final medium volume: […]).
Transfection: Second day, the transfection of GABAA4 (α4, β3, δ plasmid ratio 1:1:1) was performed. The X-tremeGENE HP DAN Transfection Reagents kit were used. The ratio of the plasmid and transfection reagent was 1 μg: 2 μL. The amount of plasmid in the 24-well plate was 0.5 μg per well, and the transfection reagent was 1 μL. The following specific steps were taken for preparing the 12 wells: The 600 μL Opti-MEM was added to a sterile centrifuge tube along with 6 μg of plasmid and was allowed to mix well; Then, the 12 μL of transfection reagent was added, mixed well following 15 min incubation at room temperature. The transfection complex was then inoculated into the cell, 50 μL per well, and the transfection complex was lightly stirred and mixed.
This mixture was changed on the third day, and the patch-clamp was performed on the fourth day.
(§4) Glass pipette (BF 150-86-10, Sutter Instruments) was pulled using a micropipette puller (P97, Sutter Instruments). The glass pipette was manipulated using a micro-manipulator (MP285, Sutter Instruments) under the microscope (IX71, Olympus). After touching the cell, a slight suction was applied to achieve high seal resistance (GQ). Fast capacitance (in pF) compensation was made after achieving high seal, and the membrane was broken. Cell capacitance (in pF) compensation was made from whole-cell capacitance compensation after the whole cell mode was achieved. No leak subtraction was made.
(§5) The test and control solutions flowed into a recording chamber mounted on the stage of an inverted microscope via a gravity-fed solution delivery system. During the experiment, solutions were withdrawn from the recording chamber by vacuum aspiration. Each concentration was tested at multiple times. All tests were performed at room temperature.
Whole cell model recorded GABAA4 receptors current experimental protocol was indicated as follows: When sealing, cell was at a holding potential of −70 mV, with gap-free mode to record the peak current. The cell would be applied with 10 nM GABA to active current. After the test articles application for 30 s, each concentration of test articles was applied with 10 nM GABA followed by 2 minutes washout using extracellular solution. Finally, 10 μM GABA was used as a positive control. The data were collected by EPC-10 amplifier and stored in PatchMaster (HEKA) software.
The following criteria are used to determine whether the data is acceptable: • (1) Electrode resistance <5MΩ • (2) Seal resistance >1GΩ • (3) The start of access resistance <15 MΩ • (4) The end of access resistance <15 MΩ • (5) No obvious spontaneous current decay. • (6) No obvious current leakage when the membrane potential is-70 mv. […]
On the technique in general: The patch-clamp technique gives a direct electrical read-out from membranes.

The next test addresses T2, GABAA1 (α1β2γ2) receptor (Homo sapiens, UniProt P14867+P47870).
T2 construct: expressed in transfected cells
In words: Patch-clamp electrophysiology on recombinant GABAA1 receptor in HEK293 cells, with 3 μM GABA. The settings on record: for Emax at 0.1 µM: 0.1 μM compound together with 3 μmol GABA; for Emax at 0.1 µM / Emax at 1 µM: read-out: potency: ratio of the peak current on the GABAA1 receptor to the peak current in 100 μmol GABA; for Emax at 1 µM: 1 μM compound together with 3 μmol GABA. The test is classed as cell-based. On the procedure:
as §1, §2, §3
The HEK293 cells line stably expressing GABAA (α1β2γ2) receptors was cultured in Dulbecco's Modified Eagle Medium (DMEM) supplemented with 10% fetal bovine serum, 800 μg/mL G418, 200 μg/mL Hygromycin B and 100 μg/mL Zeocin. Cells were grown in a humidified incubator at 37° C. with 5% carbon dioxide.
Before manual patch clamp test, the cells were detached using 0.25%-Trypsin-EDTA solution. Then 8×10^3 cells were plated onto coverslips, and cultured in a 24-well plate (final medium volume: 500 μL) and tested after 18 hours by patch clamp.
as §4, §5
Whole cell model recorded GABAA1 receptors current experimental protocol was indicated as follows: When sealing, cell was at a holding potential of −70 mV, with gap-free mode to record the peak current. The cell would be applied with 3 μM GABA to active current. After the test articles application for 30 s, each concentration of test articles was applied with 3 μM GABA followed by 2 minutes washout using extracellular solution. Finally, 100 μM GABA was used as a positive control. The data were collected by EPC-10 amplifier and stored in PatchMaster (HEKA) software.
The following criteria are used to determine whether the data is acceptable: • (1) Electrode resistance <5MΩ • (2) Seal resistance >1GΩ • (3) The start of access resistance <15 MΩ • (4) The end of access resistance <15 MΩ • (5) No obvious spontaneous current decay. • (6) No obvious current leakage when the membrane potential is-70 mv. 56.6 Data Analysis
In the detection of GABAA1, the currents of 3 μM GABA and different concentrations of test compounds were respectively normalized to the current of 100 μM GABA
[formula] and then the activation rate corresponding to each concentration was calculated.
[formula] and then the activation rate corresponding to each concentration was calculated. Means, Standard Deviation and Standard Error were calculated for each test group. EC50 value was calculated using nonlinear regression: Y=Bottom+(Top−Bottom)/(1+10^((Log EC50−X)×HillSlope))
To fit data to the concentration-response, EC50 was the concentration giving a half-maximum effect and Hillslope was the Hill coefficient. Curve-fitting and EC50 calculations were performed using Graphpad5.0 software.
Emax is defined as the ratio of the peak current generated on the GABAA1 receptor to the peak current generated only in 100 μmol of GABA and the ratio is multiplied by 100%. The peak current generated on the GABAA1 receptor is that the exemplary compounds act on the GABAA1 receptor together with 3 μmol GABA.

Where [1] appears, read: with 10 nM GABA, read-out: EC50 (with 10 nM GABA).
The mark [2] stands for this setting: with 10 nM GABA, read-out: Emax (with 10 nM GABA).
The mark [3] stands for this setting: without GABA, read-out: EC50 (without GABA).
The mark [4] stands for this setting: without GABA, read-out: Emax (without GABA).

T1 sequence (P48169 36-554): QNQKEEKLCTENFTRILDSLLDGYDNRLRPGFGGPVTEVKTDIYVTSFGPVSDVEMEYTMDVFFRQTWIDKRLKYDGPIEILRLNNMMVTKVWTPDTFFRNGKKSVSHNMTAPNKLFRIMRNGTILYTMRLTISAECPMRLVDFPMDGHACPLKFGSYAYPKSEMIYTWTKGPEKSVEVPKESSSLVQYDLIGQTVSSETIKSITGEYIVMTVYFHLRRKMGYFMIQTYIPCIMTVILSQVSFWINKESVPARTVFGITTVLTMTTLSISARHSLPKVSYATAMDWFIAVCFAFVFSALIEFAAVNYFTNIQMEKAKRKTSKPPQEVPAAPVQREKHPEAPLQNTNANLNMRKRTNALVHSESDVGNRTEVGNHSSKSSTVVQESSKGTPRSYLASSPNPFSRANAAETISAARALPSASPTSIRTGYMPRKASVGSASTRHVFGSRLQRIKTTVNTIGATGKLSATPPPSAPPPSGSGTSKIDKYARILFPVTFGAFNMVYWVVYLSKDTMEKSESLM
T1 sequence (P28472 26-473): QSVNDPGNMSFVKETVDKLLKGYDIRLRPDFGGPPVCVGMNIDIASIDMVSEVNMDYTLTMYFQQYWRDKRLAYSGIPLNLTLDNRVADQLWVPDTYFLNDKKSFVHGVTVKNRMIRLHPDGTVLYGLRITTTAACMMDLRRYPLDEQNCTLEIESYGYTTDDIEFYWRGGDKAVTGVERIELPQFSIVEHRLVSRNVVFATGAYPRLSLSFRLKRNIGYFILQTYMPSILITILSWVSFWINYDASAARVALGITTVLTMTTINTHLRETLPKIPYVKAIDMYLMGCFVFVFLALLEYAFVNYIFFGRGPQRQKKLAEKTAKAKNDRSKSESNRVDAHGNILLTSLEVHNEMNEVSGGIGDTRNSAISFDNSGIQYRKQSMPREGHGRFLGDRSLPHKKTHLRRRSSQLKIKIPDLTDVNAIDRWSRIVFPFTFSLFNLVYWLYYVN
T1 sequence (O14764 25-452 partner): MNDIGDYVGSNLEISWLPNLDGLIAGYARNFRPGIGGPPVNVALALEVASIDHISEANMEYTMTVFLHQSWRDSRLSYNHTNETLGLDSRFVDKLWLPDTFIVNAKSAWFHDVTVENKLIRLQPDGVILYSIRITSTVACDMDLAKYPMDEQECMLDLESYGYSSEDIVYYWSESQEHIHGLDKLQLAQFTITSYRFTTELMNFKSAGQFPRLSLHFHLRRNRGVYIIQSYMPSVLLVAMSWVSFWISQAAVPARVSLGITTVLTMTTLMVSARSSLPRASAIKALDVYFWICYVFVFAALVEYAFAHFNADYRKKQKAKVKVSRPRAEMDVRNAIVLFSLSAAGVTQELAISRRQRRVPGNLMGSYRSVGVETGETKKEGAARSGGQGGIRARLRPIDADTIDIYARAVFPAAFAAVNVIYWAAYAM
T2 sequence (P14867 28-456): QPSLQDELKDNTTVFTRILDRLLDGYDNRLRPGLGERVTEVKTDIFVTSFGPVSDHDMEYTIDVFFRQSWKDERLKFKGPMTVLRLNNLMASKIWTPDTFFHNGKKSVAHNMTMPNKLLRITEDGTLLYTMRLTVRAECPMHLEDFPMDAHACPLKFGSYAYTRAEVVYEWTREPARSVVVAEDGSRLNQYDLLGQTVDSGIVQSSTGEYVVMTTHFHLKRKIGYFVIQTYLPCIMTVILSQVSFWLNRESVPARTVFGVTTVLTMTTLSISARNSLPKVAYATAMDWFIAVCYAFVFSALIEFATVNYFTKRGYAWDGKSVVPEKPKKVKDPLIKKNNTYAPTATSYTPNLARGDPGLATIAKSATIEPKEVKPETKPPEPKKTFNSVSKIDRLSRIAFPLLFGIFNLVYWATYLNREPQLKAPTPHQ
T2 sequence (P47870 26-512): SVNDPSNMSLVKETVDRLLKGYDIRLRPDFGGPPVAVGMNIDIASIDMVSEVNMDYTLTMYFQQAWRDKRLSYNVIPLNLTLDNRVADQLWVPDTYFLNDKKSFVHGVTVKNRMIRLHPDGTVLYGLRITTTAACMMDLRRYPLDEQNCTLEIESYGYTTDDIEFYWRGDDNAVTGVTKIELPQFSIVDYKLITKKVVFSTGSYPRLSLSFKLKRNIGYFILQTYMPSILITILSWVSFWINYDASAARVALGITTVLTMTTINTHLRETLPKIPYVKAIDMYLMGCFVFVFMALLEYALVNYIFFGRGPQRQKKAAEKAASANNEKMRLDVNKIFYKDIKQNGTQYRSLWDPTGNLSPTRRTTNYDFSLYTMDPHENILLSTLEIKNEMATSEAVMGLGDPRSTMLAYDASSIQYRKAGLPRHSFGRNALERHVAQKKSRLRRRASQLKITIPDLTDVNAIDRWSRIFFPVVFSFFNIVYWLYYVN
T2 sequence (P18507 40-475 partner): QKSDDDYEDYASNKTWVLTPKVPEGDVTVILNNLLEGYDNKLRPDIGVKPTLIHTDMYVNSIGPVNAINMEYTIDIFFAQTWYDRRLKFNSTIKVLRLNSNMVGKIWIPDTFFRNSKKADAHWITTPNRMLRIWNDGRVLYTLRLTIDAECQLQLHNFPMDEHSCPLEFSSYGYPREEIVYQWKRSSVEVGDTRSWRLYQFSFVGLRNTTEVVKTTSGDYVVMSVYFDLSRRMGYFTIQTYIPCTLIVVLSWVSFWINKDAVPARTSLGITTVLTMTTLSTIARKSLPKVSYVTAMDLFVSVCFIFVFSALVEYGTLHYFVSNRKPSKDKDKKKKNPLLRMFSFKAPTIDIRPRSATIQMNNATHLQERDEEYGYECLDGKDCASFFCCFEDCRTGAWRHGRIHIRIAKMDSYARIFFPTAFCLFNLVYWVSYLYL

By EC50 is commonly meant the concentration needed to bring the measured effect to its halfway point. For the molecule `C[C@@]1(O)CC[C@@]2(C)[C@@H](CC[C@@H]3[C@@H]2CC[C@]2(C)[C@@H](C(=O)COc4noc5ccccc45)CCC[C@@H]32)C1` [KH025], the results for the EC50 at GABAA4 (α4β3δ) receptor (setting [1]), on GABAA4 (α4β3δ) receptor (setting [3]) and at GABAA1 (α1β2γ2) receptor (together with 3 μmol GABA) were 572 nM, 947 nM and 620 nM, respectively. The Emax at GABAA4 (α4β3δ) receptor (setting [2]) was determined as 92.5%; on GABAA4 (α4β3δ) receptor (setting [4]) it was 84.6%; on GABAA1 (α1β2γ2) receptor (HEK293, together with 3 μmol GABA, relative to peak current in 100 μmol GABA), 93.7%. For the same molecule, the Emax at 0.1 µM at GABAA1 (α1β2γ2) receptor (HEK293) lay within 0 to 20%. The Emax at 1 µM at GABAA1 (α1β2γ2) receptor (HEK293) lay in the range of 60 to 80%.
Regarding `C[C@@]1(O)CC[C@@]2(C)[C@@H](CC[C@@H]3[C@@H]2CC[C@]2(C)[C@@H](C(=O)Cn4nnc(-c5ccccc5)n4)CCC[C@@H]32)C1` [KH039], the EC50 on GABAA4 (α4β3δ) receptor (setting [1]) and at GABAA4 (α4β3δ) receptor (setting [3]) was above 4000 nM in each case. For the same molecule, the Emax on GABAA4 (α4β3δ) receptor (setting [2]) was found to be 125%; at GABAA4 (α4β3δ) receptor (setting [4]), 121%. The Emax at 0.1 µM on GABAA1 (α1β2γ2) receptor (HEK293) lay in the range of 0 to 20%. The Emax at 1 µM at GABAA1 (α1β2γ2) receptor (HEK293) is 60 to 80%.
For `C[C@@]1(O)CC[C@@]2(C)[C@@H](CC[C@@H]3[C@@H]2CC[C@]2(C)[C@@H](C(=O)COc4nc[nH]n4)CCC[C@@H]32)C1` [KH034], on GABAA1 (α1β2γ2) receptor (HEK293), the Emax at 0.1 µM lay within 0 to 20% and the Emax at 1 µM lay in the range of 0 to 20%.
Consider `CC(=O)C1CCCC2[C@@H]3CC[C@H]4C[C@H](O)CC[C@]4(C)[C@H]3CC[C@]12C` (some centres unmarked) [KH001], for which the EC50 worked out at 132 nM at GABAA4 (α4β3δ) receptor (EC50 (with 10 nM GABA), with 10 nM GABA) and 173 nM on GABAA4 (α4β3δ) receptor (EC50 (without GABA), without GABA). Further, the Emax was 91.7% on GABAA4 (α4β3δ) receptor (setting [2]) and 103% at GABAA4 (α4β3δ) receptor (setting [4]). Moreover, the Emax at 0.1 µM at GABAA1 (α1β2γ2) receptor (HEK293) was 20 to 40%. Also, the Emax at 1 µM on GABAA1 (α1β2γ2) receptor (HEK293) is 60 to 80%.
For the molecule `C[C@]12CC[C@@H](O)C[C@@H]1CC[C@@H]1[C@@H]2CC[C@]2(C)[C@@H](C(=O)Cn3ccnc3)CCC[C@@H]12` [KH007], at GABAA1 (α1β2γ2) receptor (HEK293), the Emax at 0.1 µM is 0 to 20% and the Emax at 1 µM lay in the range of 40 to 60%.
`Cc1nnn(CC(=O)[C@H]2CCC[C@H]3[C@@H]4CC[C@H]5C[C@H](O)CC[C@]5(C)[C@H]4CC[C@]23C)n1` [KH018]: at GABAA1 (α1β2γ2) receptor (HEK293), the Emax at 0.1 µM fell in the range of 0 to 20% and the Emax at 1 µM is 20 to 40%.
For `Cc1cccc2c(OCC(=O)[C@H]3CCC[C@H]4[C@@H]5CC[C@H]6C[C@](C)(O)CC[C@]6(C)[C@H]5CC[C@]34C)ncnc12` [KH029], on GABAA1 (α1β2γ2) receptor (HEK293), the Emax at 0.1 µM lay within 0 to 20% and the Emax at 1 µM is 0 to 20%.
`C[C@]12CC[C@@H](O)C[C@@H]1CC[C@@H]1[C@@H]2CC[C@]2(C)[C@@H](C(=O)Cn3cc(C(F)(F)F)cn3)CCC[C@@H]12` [KH010]: at GABAA1 (α1β2γ2) receptor (HEK293), the Emax at 0.1 µM fell in the range of 0 to 20% and the Emax at 1 µM was in the range of 20 to 40%.
For `Cn1cnnc1SCC(=O)[C@H]1CCC[C@H]2[C@@H]3CC[C@H]4C[C@](C)(O)CC[C@]4(C)[C@H]3CC[C@]12C` [KH037] the same measures were 0 to 20% and 0 to 20%.
With `Cn1nnnc1SCC(=O)[C@H]1CCC[C@H]2[C@@H]3CC[C@@H]4C[C@](C)(O)CC[C@@H]4[C@H]3CC[C@]12C` [KH047], on GABAA1 (α1β2γ2) receptor (HEK293), the Emax at 0.1 µM lay in the range of 0 to 20% and the Emax at 1 µM is 0 to 20%.
Take `C[C@@]1(O)CC[C@@]2(C)[C@@H](CC[C@@H]3[C@@H]2CC[C@]2(C)[C@@H](C(=O)COc4ncnc5cnc(F)cc45)CCC[C@@H]32)C1` [KH036]: on GABAA1 (α1β2γ2) receptor (HEK293), the Emax at 0.1 µM was in the range of 0 to 20% and the Emax at 1 µM is 0 to 20%.
`C[C@@]1(O)CC[C@H]2[C@H](CC[C@@H]3[C@@H]2CC[C@]2(C)[C@@H](C(=O)Cn4ncnn4)CCC[C@@H]32)C1` [KH052]: at GABAA1 (α1β2γ2) receptor (HEK293), the Emax at 0.1 µM fell in the range of 0 to 20% and the Emax at 1 µM was in the range of 0 to 20%.
